The values below come from patent publication US20260364184A1, “COMPOUND BASED ON OXOISOINDOLINYL-SUBSTITUTED TETRAHYDROPYRIMIDINE-DIONE AND USE THEREOF” (GLUETACS THERAPEUTICS (SHANGHAI) CO., LTD., priority 2023, published 2026).

Read-outs that look alike come from different tables or passages of the source.

What all share (assay type): cell-based
A short description of assay [1]: Inhibition of RPMI-8226 cell proliferation (CellTiter luminescent viability). The following applies: Homo sapiens, read-out: Inhibition Rate at 10 nM (%).
Assay [2] has as its system Human B-Cell Lymphoma Cells (RPMI-8226). Described as above. The following applies: RPMI-8226, 500 nM, read-out: Inhibition Rate at 500 nM (%).
Assay [3] concerns Human lung cancer cell line (H292). Description: Inhibition of H292 cell proliferation (CellTiter luminescent viability). The following applies: NCI-H292, Table IM1, CDK9 inhibitor-based, 96 hours. How it is done: The tumor cells used herein were cultured in a cell culture medium listed in table 3 at 37 °C in an incubator with 5% CO2. Prior to experimentation, all cell lines used were correctly identified by STR profiling, and tested negative for mycoplasma contamination using a mycoplasma detection kit through routine screenings.
The IC50 values of the compounds of the present disclosure (including the compounds in Table 1, Table 2, and Examples 1-468) were determined using the CellTiter-Meiluncell Luminescent Cell Viability Assay Kit from Dalian Meilun Biotech Co., Ltd. The detailed procedure is as follows: Tumor cells were seeded in 96-well cell culture plates at the densities specified in Table 4. On the following day, the test compounds of the present disclosure were subjected to serial dilution. The dilution can be performed according to one of the following two methods: • (1) The first dilution method: The test compounds of the present disclosure (including the compounds in Table 1, Table 2, and Examples 1-468) were subjected to 5-fold serial dilutions starting from a highest concentration of 2000 μM, resulting in a total of 9 concentrations from high to low (2000, 400, 80, 16, 3.2, 0.64, 0.128, 0.0256, 0.00512 μM). Subsequently, 0.5 μL of the test compound dilution was transferred into the 96-well plate containing the cells, with each well containing 100 μL of cell culture medium. […] Into the 96-well plate, the diluted test compounds and corresponding detection reagents were added, resulting in final test compound concentrations of 500 nM and 10 nM, respectively. The experimental procedure is described below using the diluted 2 μM test compound as an example.
0.5 μL of the aforementioned diluted compound of the present disclosure (including the compounds in Table 1, Table 2, and Examples 1-468) was added to the seeded cells in 100 μL of medium, yielding a final test compound concentration of 10 nM. After the cells were treated with the compounds of the present disclosure for a specified period, the cell viability assay reagent was added to the culture medium according to the kit's instructions to determine cell viability. […] All controls were treated using the same procedure as the compounds of the present disclosure. The growth inhibition curves for the compounds of the present disclosure were plotted using Prism GraphPad software, and the IC50 values were calculated therefrom.

Assay [4] relates to Human Multiple myeloma cell line (MM.1S). The experiment in a line: Inhibition of MM.1S cell proliferation (CellTiter luminescent viability). The following applies: Homo sapiens, MM1.S, Table IA5, IRAK4 inhibitor-based, 96 hours; for inhibition at 0.01 µM: 10 nM, read-out: Inhibition Rate at 10 nM (%); for inhibition at 0.5 µM: 500 nM, read-out: Inhibition Rate at 500 nM (%). The method, boiled down:
(§1)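 Cells are seeded in 96-well plates, cultured at 37 °C, 5% CO2, and treated next day with 5-fold serial compound dilutions (stock series from 2000 μM; 0.5 μL into 100 μL medium). Viability is read by CellTiter-Meiluncell luminescence after the set exposure, and IC50 is taken from growth-inhibition curves.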

For assay [5], the system named is Human myeloid monocytic leukemia cell line (MV-4-11). The experiment in a line: Inhibition of MV-4-11 cell proliferation (CellTiter luminescent viability). The following applies: Homo sapiens, MV4-11, Table IA3, IRAK4 inhibitor-based, 96 hours; for inhibition at 0.01 µM: MV-4-11, 10 nM, read-out: Inhibition Rate at 10 nM (%); for inhibition at 0.5 µM: MV-4-11, 500 nM, read-out: Inhibition Rate at 500 nM (%). In a few lines:
as §1

The target of the next assay is T1, IRAK4 (Homo sapiens, UniProt Q9NWZ3).
T1 construct: expression of target proteins in cells; endogenous in cells
T1 sequence (Q9NWZ3 1-460): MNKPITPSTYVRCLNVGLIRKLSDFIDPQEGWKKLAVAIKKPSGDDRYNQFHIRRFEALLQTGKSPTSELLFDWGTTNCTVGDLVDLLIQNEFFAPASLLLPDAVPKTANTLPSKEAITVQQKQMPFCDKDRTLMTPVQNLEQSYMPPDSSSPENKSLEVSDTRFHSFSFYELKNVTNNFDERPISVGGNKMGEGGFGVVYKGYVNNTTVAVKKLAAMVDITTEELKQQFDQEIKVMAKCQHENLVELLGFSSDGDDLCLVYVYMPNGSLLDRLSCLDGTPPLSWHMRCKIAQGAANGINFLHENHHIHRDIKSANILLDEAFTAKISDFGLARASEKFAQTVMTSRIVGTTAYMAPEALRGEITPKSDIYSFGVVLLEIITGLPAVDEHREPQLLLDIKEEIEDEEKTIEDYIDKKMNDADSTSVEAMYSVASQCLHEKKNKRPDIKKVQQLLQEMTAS
Description: Western blot degradation of IRAK4. Particulars: hPBMC Cell; 24 hours. In a few lines: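 Immunoblot of drug-treated versus DMSO-treated cell lysates, with densitometric quantification. Values: DC50 (50% band loss, fitted) and loading-control-normalised % remaining or degradation.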
In general terms: In western blotting, separated proteins are transferred to a membrane and probed.

Assay [6] concerns Human Acute T Lymphoblastic Leukemia Cells (Molt-4). Description: Inhibition of Molt-4 cell proliferation (CellTiter luminescent viability). The following applies: Homo sapiens, MOLT-4, 96 h, Table IA2, IRAK4 inhibitor-based, 96 hours; for inhibition at 0.01 µM: Molt-4, 10 nM, read-out: Inhibition Rate at 10 nM (%); for inhibition at 0.5 µM: Molt-4, 500 nM, read-out: Inhibition Rate at 500 nM (%).

[7] abbreviates: Table IA4, IRAK4 inhibitor-based, RPMI-8226, 10 nM, 96 hours.
[8] abbreviates: Table IA4, IRAK4 inhibitor-based, 96 hours.

The term inhibition denotes the relative decrease from the control value, in per cent. In the case of `O=C(NC1CCNCC1)c1[nH]ncc1NC(=O)c1c(Cl)cccc1Cl` [AT7519, reference compound], the inhibition at 0.01 µM in assay [1] (RPMI-8226, 10 nM) was 0 to 5%; in assay [3] (H292, 10 nM, read-out: Inhibition Rate at 10 nM (%)) it was -5 to 0%. The inhibition at 0.5 µM in assay [2] was -20 to -15%; in assay [3] (H292, 500 nM, read-out: Inhibition Rate at 500 nM (%)) it was 5 to 10%.

In the case of `O=C1CCN(N2C(=O)c3ccc(CN4CCC(n5cc(NC(=O)c6coc(-c7ccnc(NCC(F)(F)F)c7)n6)c(C(F)F)n5)CC4)cc3C2=O)C(=O)N1` [GT-05188, N-(3-(difluoromethyl)-1-(1-((2-(2,4-dioxotetrahydropyrimidin-1(2H)-yl)-1,3-dioxoisoindolin-5-yl)methyl)piperidin-4-yl)-1H-pyrazol-4-yl)-2-(2-((2,2,2-trifluoroethyl)amino)pyridin-4-yl) oxazole-4-carboxamide], the figures for the inhibition at 0.01 µM in assay [4], in assay [5] and in assay [1] (setting [7]) were 10 to 15%, 36 to 45% and 30 to 40%, respectively. Besides, the inhibition at 0.5 µM was in the range of 30 to 40% in assay [4], 80 to 100% in assay [5] and 40 to 60% in assay [2] (setting [8]). Moreover, the “Degradation of substrate protein IRAK4 (substrate protein remaining %)” value (shortened to “Degradation … (substrate protein remaining %)”) on IRAK4 is “A (0%≤substrate protein remaining %≤80%)”.

In the case of `O=C1CCN(N2C(=O)c3ccc(N4CCC(CN5CCC(n6cc(NC(=O)c7cnn8ccc(N9CCOCC9)nc78)c(C(F)F)n6)CC5)CC4)cc3C2=O)C(=O)N1` [GT-05291, N-(3-(difluoromethyl)-1-(1-((1-(2-(2,4-dioxotetrahydropyrimidin-1(2H)-yl)-1,3-dioxoisoindolin-5-yl)piperidin-4-yl)methyl)piperidin-4-yl)-1H-pyrazol-4-yl)-5-morpholinopyrazolo[1,5-a]pyrimidine-3-carboxamide], the results for the inhibition at 0.01 µM in assay [4], in assay [5] and in assay [1] (setting [7]) were 10 to 15%, 50 to 60% and 25 to 30%, respectively. Besides, the inhibition at 0.5 µM fell in the range of 20 to 25% in assay [4], 60 to 80% in assay [5] and 25 to 30% in assay [2] (setting [8]). Moreover, the “Degradation … (substrate protein remaining %)” value at IRAK4 was “A (0%≤substrate protein remaining %≤80%)”.

`O=C1CCN(N2Cc3cc(CN4CCN(c5ccc(-n6cc(NC(=O)c7coc(-c8ccnc(NCC(F)(F)F)c8)n7)c(C(F)F)n6)cc5)CC4)ccc3C2=O)C(=O)N1` [GT-05318, N-(3-(difluoromethyl)-1-(4-(4-((2-(2,4-dioxotetrahydropyrimidin-1(2H)-yl)-1-oxoisoindolin-5-yl)methyl)piperazin-1-yl)phenyl)-1H-pyrazol-4-yl)-2-(2-((2,2,2-trifluoroethyl)amino)pyridin-4-yl) oxazole-4-carboxamide]: the inhibition at 0.01 µM in assay [4] lay within 10 to 15%; in assay [6], 3 to 7%; in assay [5], 80 to 100%; in assay [1] (setting [7]), 20 to 25%. The inhibition at 0.5 µM fell in the range of 60 to 80% in assay [4], 40 to 60% in assay [6], 100 to 110% in assay [5] and 60 to 80% in assay [2] (setting [8]). For the same compound, the “Degradation … (substrate protein remaining %)” value on IRAK4 is on record as “A (0%≤substrate protein remaining %≤80%)”.

`COc1cc2nn([C@H]3CC[C@H](CN4CCN(C5CCN(c6ccc7c(c6)C(=O)N(N6CCC(=O)NC6=O)C7=O)CC5(F)F)CC4)CC3)cc2cc1NC(=O)c1cccc(C(F)(F)F)n1` (some centres unmarked) [GT-08659, N-(2-((1r,4r)-4-((4-(1-(2-(2,4-dioxotetrahydropyrimidin-1(2H)-yl)-1,3-dioxoisoindolin-5-yl)-3,3-difluoropiperidin-4-yl)piperazin-1-yl)methyl)cyclohexyl)-6-methoxy-2H-indazol-5-yl)-6-(trifluoromethyl) picolinamide]: the figures for the inhibition at 0.01 µM in assay [6] and in assay [1] (setting [7]) were 10 to 15% and 15 to 20%, respectively. The inhibition at 0.5 µM lay within 20 to 40% in assay [6] and 30 to 40% in assay [2] (setting [8]). In addition, at IRAK4, the “Degradation … (substrate protein remaining %)” value was “A (0%≤substrate protein remaining %≤80%)”.

As to `COc1cc2nn([C@H]3CC[C@H](CN4CCN(c5ccc6c(c5)C(=O)N(N5CCC(=O)NC5=O)C6=O)CC4)CC3)cc2cc1NC(=O)c1cccc(C(F)(F)F)c1` [GT-08661, N-(2-((1r,4r)-4-((4-(2-(2,4-dioxotetrahydropyrimidin-1(2H)-yl)-1,3-dioxoisoindolin-5-yl)piperazin-1-yl)methyl)cyclohexyl)-6-methoxy-2H-indazol-5-yl)-3-(trifluoromethyl)benzamide], the values for the inhibition at 0.01 µM in assay [6] and in assay [1] (setting [7]) were 15 to 20% and 20 to 25%, respectively. Further, the figures for the inhibition at 0.5 µM in assay [6] and in assay [2] (setting [8]) were 15 to 20% and 25 to 30%, respectively. Also, at IRAK4, the “Degradation … (substrate protein remaining %)” value is listed as “A (0%≤substrate protein remaining %≤80%)”.

With `COc1cc2nn([C@H]3CC[C@H](CN4C5CCC4CN(c4ccc6c(c4)C(=O)N(N4CCC(=O)NC4=O)C6=O)C5)CC3)cc2cc1NC(=O)c1cccc(C(F)(F)F)c1` [GT-08667, N-(2-((1r,4r)-4-((3-(2-(2,4-dioxotetrahydropyrimidin-1(2H)-yl)-1,3-dioxoisoindolin-5-yl)-3,8-diazabicyclo[3.2.1]octan-8-yl)methyl)cyclohexyl)-6-methoxy-2H-indazol-5-yl)-3-(trifluoromethyl)benzamide], the inhibition at 0.01 µM in assay [6] is 20 to 40%; in assay [1] (setting [7]), 20 to 25%. In addition, the values for the inhibition at 0.5 µM in assay [6] and in assay [2] (setting [8]) were 20 to 40% and 30 to 40%, respectively. For the same compound, the “Degradation … (substrate protein remaining %)” value on IRAK4 is on record as “A (0%≤substrate protein remaining %≤80%)”.

Regarding `COc1cc2nn([C@H]3CC[C@H](CN4CCN(c5ccc6c(c5F)C(=O)N(N5CCC(=O)NC5=O)C6=O)CC4)CC3)cc2cc1NC(=O)c1cccc(C(F)(F)F)c1` [GT-08669, N-(2-((1r,4r)-4-((4-(2-(2,4-dioxotetrahydropyrimidin-1(2H)-yl)-4-fluoro-1,3-dioxoisoindolin-5-yl)piperazin-1-yl)methyl)cyclohexyl)-6-methoxy-2H-indazol-5-yl)-3-(trifluoromethyl)benzamide], the inhibition at 0.01 µM in assay [6] lay within 20 to 40%; in assay [1] (setting [7]), 20 to 25%. For the same compound, the inhibition at 0.5 µM in assay [6] was in the range of 20 to 40%; in assay [2] (setting [8]), 30 to 40%. The “Degradation … (substrate protein remaining %)” value at IRAK4 is given as “A (0%≤substrate protein remaining %≤80%)”.
